# Source: a melting point compilation (Tetko et al.; mined from patent text by program, amines drawn as free bases though some values may be those of a salt)
row,Structure (SMILES),melting point
1,N=C(Nc1cc(Cl)cc(NC(=O)/C=C/c2ccccc2C(F)(F)F)c1)c1ccsc1,121 to 123 °C
2,O=C(NC/C=C\COc1cc(CN2CCCCC2)ccn1)NC1CCC1,130 to 132 °C
3,CCc1c(-c2ccc(OCc3ccccc3)cc2)c2cc(COCCCN(C)C)c3cccc1n32,63 to 65 °C
4,O=C(O)CCc1cn(Cc2ccc3cc(OCc4ccccc4F)ccc3c2)nc1-c1ccccc1,152 to 153 °C
5,CN1CCC2(CC1)C(=O)N(C)C(=O)N2c1ccccc1,132 to 134 °C
6,Cc1nc(NC(=O)c2ccncc2)sc1C(=O)NCc1ccccc1,171 to 172 °C
7,O=C(O)c1csc(Cn2cc(C3c4ccc(Br)cc4C=Cc4cc(Br)ccc43)c(=S)[nH]c2=O)n1,215 to 217 °C
8,Cn1ncnc1COc1nc2c(cc1-c1cccc(F)c1)nnn2-c1ccccc1F,143 to 145 °C
9,CCNC(=N)NC(=O)Cc1cccc(OC)c1,108 to 110 °C
10,NC(=O)N(O)C[C@H]1C[C@@H](c2ccc(C(F)(F)F)cc2)C1,144 to 146 °C
11,COc1cc(O)c(C(=O)C=Cc2sccc2C)c(OC)c1,124 °C
12,O=[N+]([O-])c1ccc2nc3c4ccccc4c4ccccc4c3nc2c1,253 to 255 °C
13,Cc1ccc(NCc2ccc(/C=C/C(=O)O)cc2)cc1Nc1nccc(-c2cccnc2)n1,234 to 242 °C
14,CCCCC(O)c1ccc2cc(O)ccc2c1 (configuration not stated),109 to 111 °C
15,CCCCCNC(=O)C(C)Cc1ccc2c(c1)c(Cc1ccc(C(=O)NS(=O)(=O)c3ccccc3C)cc1OC)cn2C (configuration not stated),110 to 113 °C
16,COC(=O)C1(S(=O)(=O)N2CCC(=O)CC2)CCOCC1,158 to 160 °C
17,Cc1[nH]c(C(=O)NCCCN(C)C)c(C)c1-c1nc2ccc(C(=O)c3ccccc3)cc2[nH]1,238 to 248 °C
18,O=C(O)C1Cc2c(ccc3c(=O)c4c(Cl)cccc4oc23)O1 (configuration not stated),283 to 286 °C
19,COc1ccc(-c2cnc3cc4cnn(Cc5ccccc5)c4cc3n2)cc1F,149 to 155 °C
20,CCOC(=O)c1cn2c(cc(Cl)c3ccc(Br)cc32)n1,206 to 207 °C
21,COc1cc(CC(C#N)=CNc2ccccc2)cc(OC)c1NC(C)=O,165 to 167 °C
22,CCOC(=O)C1=CC(C(=O)c2cc(Cl)ccc2O)=CN2CCc3c([nH]c4ccccc34)C12C(=O)OCC (configuration not stated),216 °C
23,Cc1cc2c(c3c1NC(=O)CC3)O[C@@H](CN)[C@H]2C (racemic),> 300 °C
24,COC(=O)C=Cc1cnc(SC)nc1N,192 to 196 °C
25,Oc1ccc2c(ccn2Cc2ccncc2)c1,185 to 186 °C
26,CCOC(=O)C(=O)Nc1cc(C#N)c(C(C)=O)cc1[N+](=O)[O-],142 to 144 °C

row,Structure (SMILES),melting point
1,CCn1cc(CN(C(=O)C2CCCc3c(OCCCN(C)C)cccc32)c2ccc(C(C)C)cc2)cn1 (configuration not stated),143 °C
2,COC1=CC(=O)OC1C(O)c1ccccc1C(F)(F)F (configuration not stated),126 to 128 °C
3,c1ccc(CSc2nc3cc4ccccc4cc3[nH]2)nc1,170 °C
4,COC(C)CC(=O)NC1CCC(CCN2CCN(c3nccc4c3OCC4)CC2)CC1 (racemic),168 °C
5,COc1ccc(N2CCN(c3c(C)c(C)c4c(c3C)C(O)(c3ccccc3)C(C)(C)O4)CC2)cc1 (configuration not stated),123 to 125 °C
6,COc1cc2c(cc1C)OC1(CC2(C)C)CC(C)(C)c2cc(OCC(=O)O)c(C)cc2O1 (configuration not stated),195 to 197 °C
7,OCc1cccc(C(O)c2cc(C(F)(F)F)nc3c(C(F)(F)F)cccc23)c1 (configuration not stated),152 to 154 °C
8,O=C(Nc1ccc2ccc(Oc3ccccc3)nc2n1)c1ccoc1,102 °C
9,Cn1ncnc1COc1nn2c(-c3ccccc3F)nnc2cc1C1(C)CCOCC1,191 °C
10,CC(=O)CN1CCc2c(c(=O)oc3cc(C)c(N)cc23)C1,196 to 198 °C
11,CCN(CC)CCCC(=O)O,45 to 47 °C
12,Nc1ccc(C(=O)N2CCC(c3[nH]nc4c3C(=O)c3c(NC(=O)NN5CCOCC5)cccc3-4)CC2)cc1,198 to 200 °C
13,CC(=O)Nc1cccc(-n2ccnc2C)c1,238 to 240 °C
14,CCCOc1cc([N+](=O)[O-])cc2cc(C(=O)OC)oc12,157 °C
15,Cc1c(Cl)ccc(NC(=O)CN2C(=O)c3ccccc3C2=O)c1Cl,245 to 246 °C
16,CCCCCCCNC(=O)N(C)c1cccc(-c2ccc(C=C(C)C(=O)O)cc2OCC)c1,123 °C
17,Cn1cc(C2=C(c3cn(C4CN(C(c5ccccc5)c5ccccc5)C4)c4ccccc34)C(=O)NC2=O)c2ccccc21,102 to 105 °C
18,CCCn1c(=O)c2[nH]c(C34CC5CC(CC(C5)C3)C4)nc2n(CCC)c1=O,169 to 171 °C
19,Oc1ncnc2c1c(-c1ccco1)nn2Cc1ccccc1,242 °C
20,C[C@@H]1Cc2cc3c(cc2C(c2ccc([N+](=O)[O-])c(Cl)c2)=NN1C(=S)NN)OCO3,126 to 127 °C
21,NC(=O)c1sc2nc(N3CCC(NCC(O)c4ccc5ncccc5c4)CC3)cc(C(F)(F)F)c2c1N (configuration not stated),217 to 219 °C
22,COc1nn(-c2ccnc(N[C@H]3CC[C@H](O)CC3)n2)c2ccccc12,202 to 205 °C
23,CCCOc1ccccc1-c1nc2ncccc2c(=O)[nH]1,110 to 111 °C
24,O=C(O)c1ccc(-c2nn(Cc3ccccc3)c3ccccc23)cc1,205 to 207 °C
25,COC(=O)[C@@]1(c2ccc3ccccc3c2)CC1(c1ccccc1)c1ccccc1,138 to 139 °C
26,CC(=O)Nn1c(=S)[nH]c2cc(C(F)(F)F)ccc21,294 to 295 °C

row,Structure (SMILES),melting point
1,COc1ccc(Oc2c(N)cc(C(=O)O)cc2S(N)(=O)=O)cc1,260 to 261 °C
2,CCCn1c(=O)c2nc(-c3ccc(/C=C/C(=O)OCC)cc3)[nH]c2n(CCC)c1=O,> 300 °C
3,COc1ccc(/C=C/c2ccncc2)c2c1OC(C)(C)C2,110 to 113 °C
4,Cc1c(C)c2c(c(C)c1OC(=O)c1ccccc1)SC(C)O2 (configuration not stated),100 to 102 °C
5,Cc1[nH]cnc1CNC(=N)NC#N,216 to 221 °C
6,COc1ccc2c(c1)NC(=O)CC(C(=O)O)C2 (configuration not stated),202 to 204 °C
7,CNC(=O)C(=NOC)c1ccccc1C#Cc1ccccc1C,128 to 129 °C
8,OC1(CNc2c(Br)cnc3cc(Cl)ccc23)CCCCC1,151 to 154 °C
9,COc1cccc(C(=NO)c2ccc(F)cc2F)c1,122 to 127 °C
10,CON1C(=O)CC2(CCN(C(=O)C3=CN(C)C=CC3)CC2)C1=O,46 to 62 °C
11,CC#COc1cccc2oc3ccccc3c(=O)c12,168 to 169 °C
12,CN1CC[C@@H](c2c(O)cc(O)c3c(=O)cc(-c4ccc(N)cc4)oc23)[C@@H]1CO,172 to 174 °C
13,CC(=O)C(C)Oc1nn(C(C)C(C)=O)c(-c2ccc(S(C)(=O)=O)cc2)c1-c1ccc(F)cc1 (configuration not stated),127 to 129 °C
14,CC(=O)c1ccc(Sc2cccc(Br)c2)cc1,54 to 57 °C
15,COC(=O)c1c(OCC#N)c2cc(OC)ccc2n1C,136 to 137 °C
16,Nc1ccc(NCCCNc2cccc3c2C(=O)c2ccccc2C3=O)cc1,183 to 185 °C
17,O=S1(=O)N=Cc2cccc(Cl)c21,162 to 164 °C
18,CCOC(=O)C1=C(C)NN=C(C(=O)OC)C1c1ccccc1[N+](=O)[O-] (configuration not stated),168 to 169 °C
19,NC(=O)COCc1nnc(S)s1,216 to 217 °C
20,CCCC[C@H](NC(=O)[C@H](CC(=O)O)NC(=O)Nc1ccc([N+](=O)[O-])cc1)C(=O)OC,204 to 205 °C
21,CCNc1nc(Cl)ccc1C(=O)O,158 to 160 °C
22,CCOC(=O)Cn1c2c(c3c(Cl)c(Cl)ccc31)CCN(C(=O)OC(C)(C)C)CC2,136 to 138 °C
23,COc1cccc2c1C(=O)N(CSc1ccccc1)S2(=O)=O,152 to 154 °C
24,CC(C)(C)OC(=O)NC1(CCN2C(=O)c3ccccc3C2=O)CC1,125 to 127 °C
25,COc1cccc(Cn2nc(C(=O)O)c3c2-c2ccc(OCc4cncnc4)cc2CC3)c1,220 to 221 °C
26,O=C1NC(=O)C(=Cc2cc(O)c(O)c([N+](=O)[O-])c2)S1,295 to 298 °C

row,Structure (SMILES),melting point
1,Cc1cc(C)c2c(n1)-c1ccccc1C2=O,102 to 104 °C
2,Cc1nc(N)ncc1-c1ccncc1,215 to 217 °C
3,Cn1cccc1C(=O)CS(C)=O (configuration not stated),74 to 76 °C
4,O=[N+]([O-])c1cccc(S(=O)(=O)NC(CO)(CO)CO)c1,98 to 99 °C
5,N#Cc1c(N2CCc3ccccc3CC2)nc(CC(N)=O)[nH]c1=O,> 200 °C
6,O=c1cnc2c([N+](=O)[O-])c(Cl)c(Cl)cc2[nH]1,330 to 332 °C
7,Cc1noc(-c2cccc(I)c2)n1,102 to 103 °C
8,COCOc1ccccc1C=CC(=O)O,133 to 134 °C
9,CCOC(=O)c1cnc2cn[nH]c2c1Nc1ccsc1,174 to 175 °C
10,N#CCC(=O)Nc1ccnn1-c1c(Cl)cc(C(F)(F)F)cc1Cl,169 to 175 °C
11,CC1(C)C(=O)Nc2cc3c(cc21)OC(O)N3 (configuration not stated),297 to 299 °C
12,N#Cc1cc(-c2ccccc2)[nH]c1Sc1ccncc1,172 to 174 °C
13,CC(=O)N1CCN=C1Nc1cc(C)nn1C(C)C,145 to 147 °C
14,C=C1[C@H](C(=O)OC)[C@H]1C(=O)OC,34.1 to 34.9 °C
15,Clc1nc(OC(Cl)(Cl)Cl)cc(C(Cl)(Cl)Cl)n1,67 to 69 °C
16,CC(C)c1ccccc1S(=O)(=O)c1ccc(OCCCNC(C)(C)C)cc1,116 °C
17,COc1ccc(N2C(=O)O[C@H](CO)[C@@H]2C)cc1,99 to 101 °C
18,N#Cc1nn(-c2c(Cl)cc(C(F)(F)F)cc2Cl)cc1C=C(Cl)Cl,99 to 101 °C
19,CC(=O)Nc1ccc2c3c1c(=O)c(C(=O)O)cn3C1CCCCC21 (configuration not stated),187 to 190 °C
20,O=C(Nc1ccc(C(=O)N2Cc3cccn3Cc3ccccc32)cc1)c1ccc2[nH]ccc2c1,130 to 170 °C
21,O=C(Nc1nccs1)c1nc(-c2cccc3ccccc23)[nH]c1-c1ccccc1,> 250 °C
22,Nc1nc(O)c2c(n1)NCC(CCc1ccc(C(=O)N[C@@H](CCC(=O)O)C(=O)O)s1)C2 (some centres not stated),204 to 230 °C
23,CC(C)(C)OC(=O)n1cnc(CN2C[C@@H](Cc3ccccc3)N(S(C)(=O)=O)Cc3cc(C#N)ccc32)c1,150 to 151 °C
24,COC1(c2csc(Sc3ccc(/C(C)=N/O)cn3)c2)CCOCC1,151 to 153 °C
